Results taken from ChEMBL document CHEMBL1201862, “PubChem BioAssay data set” (2004).
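Cultured in 96-well plates, cells were exposed to test compound for 48 hours across five concentrations. GI50: concentration for 50% inhibition of growth.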 Activity calls are given as the source filed them. Rule as the data show it: active = GI50 up to about 1.1 µM and inactive = higher.

Columns and labels:
Assay in all cases: DTP human tumour cell line panel, 48 h
SNB-75 = tested on: SNB-75
A549 = tested on: A549
NCI-H23 = tested on: NCI-H23
HCC 2998 = tested on: HCC 2998
T47D = tested on: T47D
NCI/ADR-RES = tested on: NCI/ADR-RES
LOX IMVI = tested on: LOX IMVI
RXF 393 = tested on: RXF 393
UO-31 = tested on: UO-31
IGROV-1 = tested on: IGROV-1
MCF7 = tested on: MCF7
SF-295 = tested on: SF-295
M14 = tested on: M14
NCI-H226 = tested on: NCI-H226
OVCAR-4 = tested on: OVCAR-4
EKVX = tested on: EKVX
MDA-MB-435 = tested on: MDA-MB-435
SN12C = tested on: SN12C
SW-620 = tested on: SW-620
HL-60 = tested on: HL-60
OVCAR-3 = tested on: OVCAR-3
Malme-3M = tested on: Malme-3M
PC-3 = tested on: PC-3
DU-145 = tested on: DU-145
MDA-N = tested on: MDA-N
MOLT-4 = tested on: MOLT-4
SK-OV-3 = tested on: SK-OV-3
UACC-257 = tested on: UACC-257
NCI-H460 = tested on: NCI-H460
786-0 = tested on: 786-0
MDA-MB-231 = tested on: MDA-MB-231
UACC-62 = tested on: UACC-62
OVCAR-5 = tested on: OVCAR-5
Hs-578T = tested on: Hs-578T
OVCAR-8 = tested on: OVCAR-8
SK-MEL-5 = tested on: SK-MEL-5
CCRF-CEM = tested on: CCRF-CEM
HT-29 = tested on: HT-29
SK-MEL-28 = tested on: SK-MEL-28
HOP-92 = tested on: HOP-92
RPMI-8226 = tested on: RPMI-8226
CAKI-1 = tested on: CAKI-1
SNB-19 = tested on: SNB-19
SK-MEL-2 = tested on: SK-MEL-2
HCT-116 = tested on: HCT-116
BT-549 = tested on: BT-549
NCI-H522 = tested on: NCI-H522
SF-539 = tested on: SF-539
ACHN = tested on: ACHN
SF-268 = tested on: SF-268
TK-10 = tested on: TK-10
HCT-15 = tested on: HCT-15
COLO 205 = tested on: COLO 205
KM12 = tested on: KM12
K562 = tested on: K562
A498 = tested on: A498
HOP-62 = tested on: HOP-62
SR = tested on: SR
U-251 = tested on: U-251

SMILES: O=C1C(Cl)C(c2cc3cc(Br)ccc3nc2Cl)N1c1ccc(Cl)cc1 (centres undefined)
- GI50 (SNB-75): 7.83 µM (inactive)
- GI50 (A549): 10.4 µM (inactive)
- GI50 (NCI-H23): 5.7 µM (inactive)
- GI50 (HCC 2998): 4.36 µM (inactive)
- GI50 (T47D): 6.65 µM (inactive)
- GI50 (NCI/ADR-RES): 5.75 µM (inactive)
- GI50 (LOX IMVI): 0.906 µM (active)
- GI50 (RXF 393): 5.13 µM (inactive)
- GI50 (UO-31): 815 nM (active)
- GI50 (IGROV-1): 3.02 µM (inactive)
- GI50 (MCF7): 3.74 µM (inactive)
- GI50 (SF-295): 9.68 µM (inactive)
- GI50 (M14): 5.85 µM (inactive)
- GI50 (NCI-H226): 4.26 µM (inactive)
- GI50 (OVCAR-4): 4.46 µM (inactive)
- GI50 (EKVX): 4.16 µM (inactive)
- GI50 (MDA-MB-435): 5.82 µM (inactive)
- GI50 (SN12C): 4.45 µM (inactive)
- GI50 (SW-620): 7.35 µM (inactive)
- GI50 (HL-60): 6.95 µM (inactive)
- GI50 (OVCAR-3): 5.41 µM (inactive)
- GI50 (Malme-3M): 4.56 µM (inactive)
- GI50 (PC-3): 5.69 µM (inactive)
- GI50 (DU-145): 6.95 µM (inactive)
- GI50 (MDA-N): 5.53 µM (inactive)
- GI50 (MOLT-4): 3.89 µM (inactive)
- GI50 (SK-OV-3): 10.3 µM (inactive)
- GI50 (UACC-257): 4.81 µM (inactive)
- GI50 (NCI-H460): 6.59 µM (inactive)
- GI50 (786-0): 4.65 µM (inactive)
- GI50 (MDA-MB-231): 3.9 µM (inactive)
- GI50 (UACC-62): 4.22 µM (inactive)
- GI50 (OVCAR-5): 10.7 µM (inactive)
- GI50 (Hs-578T): 9.2 µM (inactive)
- GI50 (OVCAR-8): 5.9 µM (inactive)
- GI50 (SK-MEL-5): 3.21 µM (inactive)
- GI50 (CCRF-CEM): 3.08 µM (inactive)
- GI50 (HT-29): 7.16 µM (inactive)
- GI50 (SK-MEL-28): 11.1 µM (inactive)
- GI50 (HOP-92): 3.43 µM (inactive)
- GI50 (RPMI-8226): 5.21 µM (inactive)
- GI50 (CAKI-1): 4.43 µM (inactive)
- GI50 (SNB-19): 8.43 µM (inactive)
- GI50 (SK-MEL-2): 4.37 µM (inactive)
- GI50 (HCT-116): 5.31 µM (inactive)
- GI50 (BT-549): 4.4 µM (inactive)
- GI50 (NCI-H522): 3.95 µM (inactive)
- GI50 (SF-539): 4.33 µM (inactive)
- GI50 (ACHN): 4.5 µM (inactive)
- GI50 (SF-268): 4.51 µM (inactive)
- GI50 (TK-10): 5.24 µM (inactive)
- GI50 (HCT-15): 4.86 µM
- GI50 (COLO 205): 4.89 µM (inactive)
- GI50 (KM12): 8.97 µM (inactive)
- GI50 (K562): 5.81 µM (inactive)
- GI50 (A498): 16.5 µM (inactive)
- GI50 (HOP-62): 9.68 µM (inactive)
- GI50 (SR): 1.64 µM (inactive)

SMILES: Cc1cccc(C2ON=C(c3ccccc3)N2C23CC4CC(CC(C4)C2)C3)c1 (centres undefined)
- GI50 (SNB-75): 7.28 µM (inactive)
- GI50 (A549): > 10 µM (inactive)
- GI50 (NCI-H23): > 10 µM (inactive)
- GI50 (HCC 2998): > 10 µM (inactive)
- GI50 (T47D): > 10 µM (inactive)
- GI50 (NCI/ADR-RES): > 10 µM (inactive)
- GI50 (LOX IMVI): > 10 µM (inactive)
- GI50 (RXF 393): > 10 µM (inactive)
- GI50 (IGROV-1): > 10 µM (inactive)
- GI50 (MCF7): 3.6 µM (inactive)
- GI50 (SF-295): > 10 µM (inactive)
- GI50 (M14): > 10 µM (inactive)
- GI50 (NCI-H226): > 10 µM (inactive)
- GI50 (OVCAR-4): > 10 µM (inactive)
- GI50 (EKVX): > 10 µM (inactive)
- GI50 (MDA-MB-435): > 10 µM (inactive)
- GI50 (SN12C): > 10 µM (inactive)
- GI50 (SW-620): > 10 µM (inactive)
- GI50 (HL-60): > 10 µM (inactive)
- GI50 (OVCAR-3): > 10 µM (inactive)
- GI50 (Malme-3M): > 10 µM (inactive)
- GI50 (U-251): > 10 µM (inactive)
- GI50 (PC-3): > 10 µM (inactive)
- GI50 (DU-145): > 10 µM (inactive)
- GI50 (MDA-N): > 10 µM (inactive)
- GI50 (MOLT-4): > 10 µM (inactive)
- GI50 (SK-OV-3): > 10 µM (inactive)
- GI50 (UACC-257): > 10 µM (inactive)
- GI50 (NCI-H460): > 10 µM (inactive)
- GI50 (786-0): > 10 µM (inactive)
- GI50 (MDA-MB-231): > 10 µM (inactive)
- GI50 (UACC-62): > 10 µM (inactive)
- GI50 (OVCAR-5): > 10 µM (inactive)
- GI50 (Hs-578T): > 10 µM (inactive)
- GI50 (OVCAR-8): > 10 µM (inactive)
- GI50 (SK-MEL-5): > 10 µM (inactive)
- GI50 (CCRF-CEM): > 10 µM (inactive)
- GI50 (HT-29): > 10 µM (inactive)
- GI50 (SK-MEL-28): > 10 µM (inactive)
- GI50 (HOP-92): > 10 µM (inactive)
- GI50 (RPMI-8226): > 10 µM (inactive)
- GI50 (CAKI-1): > 10 µM (inactive)
- GI50 (SNB-19): > 10 µM (inactive)
- GI50 (SK-MEL-2): > 10 µM (inactive)
- GI50 (HCT-116): > 10 µM (inactive)
- GI50 (BT-549): > 10 µM (inactive)
- GI50 (NCI-H522): > 10 µM (inactive)
- GI50 (SF-539): > 10 µM (inactive)
- GI50 (ACHN): > 10 µM (inactive)
- GI50 (SF-268): > 10 µM (inactive)
- GI50 (TK-10): > 10 µM (inactive)
- GI50 (HCT-15): > 10 µM
- GI50 (COLO 205): > 10 µM (inactive)
- GI50 (KM12): > 10 µM (inactive)
- GI50 (K562): > 10 µM (inactive)
- GI50 (A498): > 10 µM (inactive)
- GI50 (HOP-62): > 10 µM (inactive)
- GI50 (SR): > 10 µM (inactive)

SMILES: CC(C)OC(=O)c1ccc(NCc2cc(O)ccc2O)cc1Cl
- GI50 (SNB-75): 6.73 µM (inactive)
- GI50 (A549): 12 µM (inactive)
- GI50 (NCI-H23): 4.39 µM (inactive)
- GI50 (HCC 2998): 3.59 µM (inactive)
- GI50 (T47D): 1.56 µM (inactive)
- GI50 (NCI/ADR-RES): 2.78 µM (inactive)
- GI50 (LOX IMVI): 3.27 µM (inactive)
- GI50 (RXF 393): 2.61 µM (inactive)
- GI50 (UO-31): 993 nM (active)
- GI50 (IGROV-1): 2.31 µM (inactive)
- GI50 (MCF7): 3.47 µM (inactive)
- GI50 (SF-295): 12.2 µM (inactive)
- GI50 (M14): 7.13 µM (inactive)
- GI50 (NCI-H226): 8.22 µM (inactive)
- GI50 (OVCAR-4): 4.89 µM (inactive)
- GI50 (EKVX): 4.92 µM (inactive)
- GI50 (MDA-MB-435): 2.15 µM (inactive)
- GI50 (SN12C): 4 µM (inactive)
- GI50 (SW-620): 2.72 µM (inactive)
- GI50 (HL-60): 0.364 µM (active)
- GI50 (OVCAR-3): 2.56 µM (inactive)
- GI50 (U-251): 3.95 µM (inactive)
- GI50 (PC-3): 2.57 µM (inactive)
- GI50 (DU-145): 9.08 µM (inactive)
- GI50 (MDA-N): 3.18 µM (inactive)
- GI50 (MOLT-4): 0.695 µM (active)
- GI50 (SK-OV-3): 7.21 µM (inactive)
- GI50 (UACC-257): 11.4 µM (inactive)
- GI50 (NCI-H460): 6.08 µM (inactive)
- GI50 (786-0): 2.09 µM (inactive)
- GI50 (MDA-MB-231): 4.18 µM (inactive)
- GI50 (UACC-62): 5.26 µM (inactive)
- GI50 (OVCAR-5): 8.43 µM (inactive)
- GI50 (Hs-578T): 23.7 µM (inactive)
- GI50 (OVCAR-8): 2.77 µM (inactive)
- GI50 (SK-MEL-5): 2.73 µM (inactive)
- GI50 (CCRF-CEM): 0.258 µM (active)
- GI50 (HT-29): 9.57 µM (inactive)
- GI50 (SK-MEL-28): 4.28 µM (inactive)
- GI50 (HOP-92): 1.51 µM (inactive)
- GI50 (RPMI-8226): 0.202 µM (active)
- GI50 (CAKI-1): 0.861 µM (active)
- GI50 (SNB-19): 2.64 µM (inactive)
- GI50 (SK-MEL-2): 15.1 µM (inactive)
- GI50 (HCT-116): 8.87 µM (inactive)
- GI50 (BT-549): 0.327 µM (active)
- GI50 (NCI-H522): 0.206 µM (active)
- GI50 (SF-539): 1.75 µM (inactive)
- GI50 (ACHN): 1.78 µM (inactive)
- GI50 (SF-268): 13.1 µM (inactive)
- GI50 (TK-10): 6.98 µM (inactive)
- GI50 (HCT-15): 0.798 µM
- GI50 (COLO 205): 2.3 µM (inactive)
- GI50 (KM12): 3.64 µM (inactive)
- GI50 (K562): 0.501 µM (active)
- GI50 (A498): 11 µM (inactive)
- GI50 (HOP-62): 18.9 µM (inactive)
- GI50 (SR): 0.695 µM (active)
